The results in this text go back to patent US20150133454A1, “NANOSTRUCTURED MUCOADHESIVE MICROPARTICLES” (SNU R&DB FOUNDATION, priority 2012, published 2015).

Broadly, the AUC is the area under the concentration-time curve, a measure of exposure. Read a low AUC as low exposure. As usually defined, the Cmax is the maximum level reached in the sampled fluid or tissue.

The nature of series [1]: Pharmacokinetic analysis: brimonidine concentration in aqueous humor. The format is in vivo. As to conditions: brimonidine in rabbit aqueous humor after topical administration. How it is done:
Seven different formulations loaded with brimonidine prepared as described in Example 6-1 were topically administered to the rabbit eye and pharmacokinetics of the drug administered was examined as described below from the aqueous humor taken at a specified time in FIG. 12 after the administration. Specifically, the rabbit was generally anesthetized as described in Example 4 at the specified time after the administration and 50 μl of Aqueous humor (AH) was obtained from the rabbit eye using 1 ml syringe with 30 gauge needle, which was then used for SPE (Solid Phase Extraction) and HPLC analysis. First, Brimonidine Stock solution was prepared at the final concentration of […] in distilled water, from which 2000, 1000, 800, 600, 400, 200, 100, and 50 μg/ml of Brimonidine solution were prepared. For the calibration, 25 μl of AH from no treatment control, 25 μl Stock Solution (2000, 1000, 800, 600, 400, 200, 100, 50 μg/ml), 50 μl IS (Internal standard, clonidine)(50 μg/ml) and 200 μl of PBS (pH=8) were mixed and centrifuged at 11000×g for 10 min. and 100 μl of the supernatant was used for SPE analysis.
For the sample from the rabbit eye treated with the drug, 50 μl of AH, 50 μl of IS (50 μg/ml) and 200 μl of PBS (pH=8) were mixed and centrifuged at 11000×g for 10 min and 100 μl of the supernatant was used for SPE analysis. SPE (Bond-Eluct-C18, 100 mg, 1 ml, Agilent Technologies) analysis was proceed as below. Before the sample injection, it was washed with MeOH (1 ml) and distilled water (1 ml). Each sample for the calibration and for the analysis was then injected and washed with 1 ml of PBS and eluted with 1 ml of 70% acetonitrile, followed by evaporation for 3 hrs at 40° C. using SpeedVac (Thermo Savant SPD 2010 SpeedVac System, Thermo Electron Corporation, USA). […]
HPLC (Agilent 1260 Series, Agilent Technologies, CA, USA) was used for determining the concentration, in which 50 μl of sample was injected and analyzed under the following condition: Mobile phase=20 mM phosphate buffer (pH=2.5) : MeOH=9:1, flow rate 1 ml/min, 248 nm

Series [2] concerns Intra ocular pressure (IOP) of the rabbit eye. As to the kind of experiment: Therapeutic effect: decrease in IOP after administration of drug-loaded formulations. The class given is in vivo. As to conditions: topical, 556.5 μg dorzolamide (25 μl of Trusopt 2%). How it is done: The formulation of microparticles as prepared in Examples 6-1 and 6-2 was administered to the rabbit eye according to Example 4 and IOP was measured as described in Example 5.
For testing therapeutic effect by BRT, a total of 7 samples were used. […] For testing therapeutic effect by dorzolamide, 25 μl of Trusopt 2% (MSD, USA), PVA tablet (just containing 556.5 μg of dorzolamide 556.5 μg without any microparticles) and four different types of microparticles prepared as described above containing 556.5 μg dorzolamide were used for the test.
Then, a device for measuring IOP called Tonopen as described in Example 5 was used to measure IOP before the administration and 0.5 h˜13 h after the administration to confirm the efficacy of the drug.

Turning to Brimonidine Tartrate [BRT solution], in series [1], the area under the curve (AUC) was 795 ng·h/mL, the Cmax came to 692 ng/mL and the tmax stood at 40 min.
Consider `CCN[C@H]1C[C@H](C)S(=O)(=O)c2sc(S(N)(=O)=O)cc21` [Dorzolamide solution, Dorzolamide], for which the “time for which the formulation was effective in decreasing IOP (Dorzolamide)” value in series [2] amounted to 5 h.
